SMILES strings stand for the structures.

The nature of the data set: gradient 5% acetonitrile 3 min, to 50% in 2 min, to 85% in 15 min, held 3 min, 100 µL/min. The conditions noted are these: column: Zorbax Extend-C18 2.1 x 50 mm; eluents: water / acetonitrile, 0.1% formic acid. In short, it runs like this: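 Retention time was recorded from adduct peaks, which were picked computationally and each inspected manually. Pure standards ran in mixtures of ~100 molecules on HPLC coupled to a quadrupole time-of-flight mass spectrometer, in positive and negative ionization mode, through a Zorbax Extend-C18 column (2.1 × 50 mm, 1.8 μm) at 100 μL/min. Eluents were water and acetonitrile, each with 0.1% formic acid.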
Regarding `O=C(NCc1csc(C2CCN(C(=O)c3ccc(F)cc3F)CC2)n1)C1CCC1`, the RP-LC retention time was 729 s. The figure for `CCn1c(=O)c2ccccc2n(Cc2nc(-c3ccc(C)cc3)no2)c1=O` is 1070 s. With `CCOc1cc(C(=O)Nc2cc(-c3cn4cccnc4n3)ccc2OC)cc(OCC)c1OCC`, the RP-LC retention time stood at 831 s. The figure for `CCc1cc(=O)n(CC(=O)Nc2ccc(C)c(C)c2)c(N)n1` is 640 s; for `Cc1cc(-c2nnc(C3CC3)o2)c(C)n1CC(=O)NC(C)c1ccccc1` (centres undefined) it is 790 s; for `O=C(Cn1cnc2nc(N3CCCC(C(=O)NC4CC4)C3)sc2c1=O)NCc1cccs1` (centres undefined) it is 644 s. To `COc1cc2nc(C(=O)N3CCCCC3)cc(Nc3ccc(F)c(F)c3)c2cc1OC` belongs 720 s; to `O=C(NCC1CCCO1)C1CCN(C(=O)c2cccn2-c2cccnc2)CC1` (centres undefined), 602 s; to `COc1cccc(-c2cc3c(=O)n(CC(O)c4cccc(C#N)c4)ccn3n2)c1` (centres undefined), 796 s. In turn, `O=C(Cn1cnc2ccccc21)N1CCC(COCc2ccccc2)CC1` showed an RP-LC retention time of 608 s.

`COCCN1CC2(CCN(S(=O)(=O)c3cc(C)c(C)cc3C)CC2)C1c1ccncc1` (centres undefined) came in with an RP-LC retention time of 672 s. The figure for `CCOc1ccccc1NC(=O)Nc1cccc(-c2ccc(N3CCOCC3)nn2)c1` is 670 s; for `COc1cc(NC(=O)Cn2c(=O)n(-c3ccccc3)c(=O)c3c2cc(C)n3C)cc(OC)c1` it is 804 s; for `CCN(CC)C(=O)c1cnc2nc(C)ccc2c1Nc1ccc2c(c1)OCCO2` it is 601 s. To `Cc1nc2ccccc2c(=O)n1Cc1noc(C2CC(=O)N(c3ccccc3)C2)n1` (centres undefined) belongs 722 s.

Regarding `O=S(=O)(c1ccccc1F)N1CC(F)(F)C[C@H]1CN1CCc2ccccc2C1`, the RP-LC retention time was 738 s. To `CCNS(=O)(=O)c1cccnc1Nc1ccc(Cl)c(F)c1` belongs 1090 s. To `O=C(CC1CCCC1)N1CCC(c2noc(-c3ccncc3)n2)C1` (centres undefined) belongs 786 s.

Compound `NC(=O)C1CCN(C(=O)CCCn2c(=O)c3cccn3c3ccc(Br)cc32)CC1` showed an RP-LC retention time of 685 s. On to `CC(C)(CO)NCc1ccc(-c2ccc(Cl)cc2Cl)o1`, for which the RP-LC retention time is 685 s. To `Cc1ccc(-c2nc(-c3ccc(-n4ccnc4)nc3)no2)cc1C` belongs 857 s.

On to `Cn1cnc(S(=O)(=O)N2CCN(Cc3cccc(F)c3)C3(CCOCC3)C2)c1`, for which the RP-LC retention time amounted to 598 s. The figure for `COc1ccc(N2CCN(C(=O)c3csc(C(=O)NC4CC4)n3)CC2)cc1` is 700 s. `CC(C)Cc1csc(-c2csc(S(=O)(=O)NCc3ccc(F)cc3F)c2)n1` gave an RP-LC retention time of 1160 s.

`COc1ccc(Cl)cc1S(=O)(=O)N1CCC(OC2CCN(C)CC2)CC1` returned an RP-LC retention time of 791 s. Turning to `COc1ccc(OC)c(CNC(=O)Cc2nnc(-c3cccs3)o2)c1`, the RP-LC retention time was 700 s. Compound `Cc1ccc2c(c1)N(Cc1ccccc1)N=C(C(=O)N1CCOCC1)S2(=O)=O` showed an RP-LC retention time of 832 s. `O=C(C1CCCN(c2nn3c(=O)c4c(nc3s2)CCCC4)C1)N1CCN(c2ccccn2)CC1` (centres undefined) gave an RP-LC retention time of 588 s. To `CCn1cnc2ccc(-c3noc(CNC(=O)c4ccccc4)n3)cc21` belongs 620 s; to `Cc1ccc(N2CC(c3nc(-c4ccc(CNC(=O)C5CC5)s4)no3)CC2=O)cc1C` (centres undefined), 874 s; to `Cn1nc2ccc(S(=O)(=O)N3CCCCC3)cn2c1=O`, 703 s.

For `O=C1C(c2cccnc2)N(c2ccc3c(c2)OCCO3)C(=O)CN1c1ccccc1` (centres undefined), the RP-LC retention time worked out at 644 s. To `COc1ccc(Cl)cc1S(=O)(=O)NCc1cccnc1-c1cccc(C)c1` belongs 771 s.

`COc1cccc(CNC(=O)C2(C)CCCN(C(=O)Nc3cc(OC)ccc3OC)C2)c1` (centres undefined) returned an RP-LC retention time of 844 s. For the compound `COC(=O)c1c(NCc2ccccc2C(F)(F)F)c2cccc(Cl)c2[nH]c1=O`, the RP-LC retention time amounted to 879 s. Compound `Cc1cc2n(n1)CCCN2C(=O)CCC(=O)Nc1ccc(Br)cc1F` came in with an RP-LC retention time of 735 s. The compound `O=C(NCCCN1CCCC1=O)C1CCCN(c2ncnc3c2nc2n3CCCCC2)C1` (centres undefined) came in with an RP-LC retention time of 605 s.

Take `CNC(=O)c1c(NC(=O)c2ccc(Cl)cc2)sc2c1CCC2`: the RP-LC retention time amounted to 1180 s. To `CCn1nc(CNC(=O)c2ccccn2)c2ccccc21` belongs 796 s; to `Cc1cnc(C(=O)N(C)C2CCc3nn(CC4CC4)c(=O)n3CC2)cn1` (centres undefined), 618 s; to `CN(C)CCNC(=O)c1ncn2c1C(=O)N(C1CC1)C(C)(C(=O)NCc1ccc(F)cc1)C2` (centres undefined), 600 s.

Take `O=C(Cc1nnc2c(-c3nc(C4CC4)no3)cccn12)N1CCOCC1`: the RP-LC retention time amounted to 609 s.

Compound `O=C(Nc1cccc(Cl)c1)Nc1ncc(CCNc2ncnc3ccsc23)s1` registered an RP-LC retention time of 721 s.

For `CC(C)CC(=O)N1CC[C@@H]2COCCN(C)[C@@H]2C1`, the RP-LC retention time was found to be 575 s.

`COc1ccc(OC)c(Nc2c(-c3cccc(O)c3)nc3cnccn23)c1` yielded an RP-LC retention time of 727 s. To `CC1CCCCC1NC(=O)c1sc2ncccc2c1-n1cccc1` (centres undefined) belongs 1260 s. `CSc1ccc(-c2nc3cnccn3c2Nc2cccc(C)c2C)cc1` gave an RP-LC retention time of 1060 s.

In the case of `O=C(NCC1CN(c2ccc(F)cc2)C(=O)O1)c1cc(Cl)ccc1Cl` (centres undefined), the RP-LC retention time amounted to 797 s. For the compound `CC(C)OCCCNC(=O)C(=O)Nc1ccc(C(C)C)cc1`, the RP-LC retention time was 983 s.

In turn, `Fc1ccc(C2Cn3nnc(-c4nc(-c5ccccn5)no4)c3CO2)cc1` (centres undefined) showed an RP-LC retention time of 854 s. To `COc1ccc(NC(=O)C2CCN(S(=O)(=O)c3cc(-c4noc(C)n4)cs3)CC2)cc1Cl` belongs 946 s; to `O=C(COc1ccc2c(-c3ccccc3)cc(=O)oc2c1)N1CCC2(O)CCCCC2C1` (centres undefined), 845 s. As to `CCOC(=O)c1cc(S(=O)(=O)N2CCCC2C(=O)Nc2cccc(C(F)(F)F)c2)cn1C` (centres undefined), the RP-LC retention time turned out to be 1050 s. To `CCOc1ccc(S(=O)(=O)Nc2cc(-c3cn4ccc(C)cc4n3)ccc2C)cc1` belongs 718 s. For `Cc1sc2ccn(C)c(=O)c2c1C(=O)N1CCN(c2ccccc2)CC1`, the RP-LC retention time was 728 s. In the case of `O=C(CN1CCN(Cc2cccc(Cl)c2)C1=O)NCc1ccc(N2CCOCC2)cc1`, the RP-LC retention time was 736 s. `COCCCNC(=O)C1CCN(S(=O)(=O)c2ccc3c(c2)NC(=O)CO3)CC1` registered an RP-LC retention time of 627 s. Take `NC(=NC1C2CC3CC(C2)CC1C3)Nc1ccc(I)cc1` (centres undefined): the RP-LC retention time is 887 s. `CC1CCC(NC(=O)C(Cc2c[nH]c3ccccc23)NC(=O)C2CCC(C)CC2)CC1` (centres undefined) displayed an RP-LC retention time of 1100 s.

`CN(C)C(=O)c1cc2cccc3c2n1CCS3`: the RP-LC retention time is 816 s. To `Nc1cc(=O)nc(SCC(=O)Nc2nc(-c3ccccc3)cs2)n1-c1ccccc1` belongs 727 s. The figure for `Cc1csc(NC(=O)CN2CCC3(CC2)NC(=O)N(Cc2ccc(Cl)cc2)C3=O)n1` is 949 s; for `CCCCNC(=O)CCC1CCCN(c2cc(NCC)ncn2)C1` (centres undefined) it is 641 s. As to `O=C(CN1C(=O)NC(c2ccccc2Cl)C2=C1COC2=O)NCc1ccccc1Cl` (centres undefined), the RP-LC retention time is 801 s.

In turn, `COCCNC(=O)c1cc2c(n(-c3ccc(C(C)C)cc3)c1=O)CCCC2=O` registered an RP-LC retention time of 872 s. The compound `O=C1OC(C(=O)Nc2ccc(F)cc2)Cc2ccc(Cl)cc21` (centres undefined) yielded an RP-LC retention time of 858 s. The figure for `Cc1ccc(CNC(=O)Nc2c(-c3ccccc3)nc3ccccn23)cc1` is 662 s; for `COc1ccc(CNC(=O)C2CCCN(c3ncnc4c3oc3ccccc34)C2)c(OC)c1` (centres undefined) it is 754 s; for `COc1cccc(CNC(=O)C2CCCN(c3ncnc4c3nc3n4CCCCC3)C2)c1` (centres undefined) it is 736 s. The figure for `O=C([C@@H]1C[C@H](Oc2ccccc2)CN1C(=O)CC1CCCC1)N1CCCC1` is 832 s. The figure for `CCn1ccc2cc(S(=O)(=O)N3CCCN(C(=O)Nc4ccccc4)CC3)ccc21` is 868 s. The compound `Cn1c(=O)c(N2CCC(C(=O)NCCc3c[nH]c4ccc(Cl)cc34)CC2)nc2ccccc21` gave an RP-LC retention time of 892 s. As for `COc1c(S(=O)(=O)Nc2cccnc2)ccc(Cl)c1Cl`, the RP-LC retention time turned out to be 649 s. To `CCOC(=O)C1CCN(C(=O)c2cc(=O)c(OCc3ccc(F)cc3)cn2C)CC1` belongs 750 s; to `CCOc1ccc(-c2nc3ncccn3c2NCc2ccc(C)cc2)cc1OC`, 773 s. As to `CS(=O)(=O)N1CCCC(C(=O)Nc2nc(-c3nc4ccccc4s3)cs2)C1` (centres undefined), the RP-LC retention time is 800 s. The figure for `CCC(C)(C)NC(=O)Cn1ncc2c(N3CCN(c4ccccn4)CC3)ncnc21` is 587 s; for `Cc1cc(OCC(=O)N[C@H](C(=O)O)C(C)C)c2c3c(c(=O)oc2c1)CCCC3` it is 837 s; for `O=S(=O)(c1ccc2nncn2c1)N(Cc1ccc(F)cc1)c1ccc(F)cc1` it is 861 s.

(Values after the METLIN SMRT retention time set (Domingo-Almenara et al. 2019).)
